The text below walks through data of ChEMBL document CHEMBL3580616, “Structure-based design of potent HIV-1 protease inhibitors with modified P1-biphenyl ligands: synthesis, biological evaluation, and enzyme-inhibitor X-ray structural studies” (J Med Chem, 2015).

In assay [1] the test system is Human immunodeficiency virus 1. The assay can be described thus: Antiviral activity against wild type HIV1 ERS104P infected in human PHA-PBMs assessed as inhibition of p24 Gag protein production. Particulars: Human immunodeficiency virus 1, ERS104P.
Assay [2] relates to Human immunodeficiency virus 1. The assay can be described thus: Antiviral activity against multidrug resistant HIV1 MDR/B containing protease mutant infected in human PHA-PBMs assessed as inhibition of p24 Gag protein production. Particulars: Human immunodeficiency virus 1, MDR/B.
Assay [3] relates to Human immunodeficiency virus 1. The assay is described as follows: Antiviral activity against multidrug resistant HIV1 MDR/C containing protease mutant infected in human PHA-PBMs assessed as inhibition of p24 Gag protein production. Particulars: Human immunodeficiency virus 1, MDR/C.
Assay [4] concerns Human immunodeficiency virus 1. The assay is described as follows: Antiviral activity against multidrug resistant HIV1 MDR/G containing protease mutant infected in human PHA-PBMs assessed as inhibition of p24 Gag protein production. Particulars: Human immunodeficiency virus 1, MDR/G.
In assay [5] the test system is Human immunodeficiency virus 1. The assay is described as follows: Antiviral activity against multidrug resistant HIV1 MDR/B containing protease mutant infected in human PHA-PBMs assessed as inhibition of p24 Gag protein production relative to wild type.
Assay [6] concerns Human immunodeficiency virus 1. The assay is described as follows: Antiviral activity against multidrug resistant HIV1 MDR/C containing protease mutant infected in human PHA-PBMs assessed as inhibition of p24 Gag protein production relative to wild type.
Assay [7] deals with Human immunodeficiency virus 1. The assay is described as follows: Antiviral activity against multidrug resistant HIV1 MDR/G containing protease mutant infected in human PHA-PBMs assessed as inhibition of p24 Gag protein production relative to wild type.
Another assay addresses Protease (Human immunodeficiency virus 1, UniProt Q9YQ12). The assay is described as follows: Inhibition of wild type HIV1 protease.
The subject of assay [8] is Human immunodeficiency virus 1. The assay is described as follows: Antiviral activity against HIV1 LAI infected in human MT-2 cells assessed as virus-induced cytopathic effect by MTT assay. To be noted: Human immunodeficiency virus 1, LAI.

The structures appear in SMILES notation. Some results are limits rather than exact numbers.

Protease, sequence (Q9YQ12 whole entry): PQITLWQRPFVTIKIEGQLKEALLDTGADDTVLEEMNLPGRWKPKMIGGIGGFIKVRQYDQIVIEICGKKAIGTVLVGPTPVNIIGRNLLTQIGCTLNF

By EC50 is commonly meant the concentration that produces a half-maximal response. For the compound `CC(C)CN(C[C@@H](O)[C@H](Cc1ccccc1)NC(=O)O[C@H]1CCOC1)S(=O)(=O)c1ccc(N)cc1`, the EC50 in [1] amounted to 37 nM; in [2] it was 44 nM; in [3], 380 nM; in assay [4] it was 398 nM. For the same compound, the results for the “fold change (FC)” value in [5], in assay [6] and in assay [7] were 12, 10 and 11, respectively.

A word on the Ki: it is the dissociation constant of the complex between target and ligand, obtained from inhibition or displacement. The low end stands for higher affinity, the high end for lower affinity. For orientation: IC50 means the concentration that gives 50% inhibition. The compound `COc1ccc(S(=O)(=O)N(CC(C)C)C[C@@H](O)[C@H](Cc2cccc(-c3c(OC)cccc3OC)c2)NC(=O)O[C@H]2CO[C@H]3OCC[C@H]32)cc1` came in with a Ki at Protease of 0.025 nM. Further, the IC50 in assay [8] was determined as 24 nM.

In turn, `COc1ccc(S(=O)(=O)N(CC(C)C)C[C@@H](O)[C@H](Cc2cccc(-c3cccc(OC)c3)c2)NC(=O)O[C@H]2CO[C@H]3OCC[C@H]32)cc1` returned a Ki at Protease of 0.014 nM. Besides, in assay [8], the 50% inhibitory concentration (IC50) was 5 nM.

Compound `COc1ccc(S(=O)(=O)N(CC(C)C)C[C@@H](O)[C@H](Cc2cccc(-c3cc(C)cc(C)c3)c2)NC(=O)O[C@H]2CO[C@H]3OCC[C@H]32)cc1` had a Ki on Protease of 0.45 nM. Also, the IC50 in assay [8] was 56 nM.

On to `COc1ccc(S(=O)(=O)N(CC(C)C)C[C@@H](O)[C@H](Cc2cccc(-c3cc(OC)cc(OC)c3)c2)NC(=O)O[C@H]2CO[C@H]3OCC[C@H]32)cc1`, for which the affinity at Protease, expressed as Ki, was 0.014 nM. The IC50 in assay [8] is 5 nM.

In the case of `COc1ccc(S(=O)(=O)N(CC(C)C)C[C@@H](O)[C@H](Cc2cccc(-c3cc(C)cc(C)c3)c2)NC(=O)O[C@H]2CCOC2)cc1`, at Protease, the inhibition constant Ki came to 0.63 nM. In addition, the IC50 in assay [8] is over 1000 nM.

The compound `COc1ccc(S(=O)(=O)N(CC(C)C)C[C@@H](O)[C@H](Cc2cccc(-c3cccc(OC)c3)c2)NC(=O)O[C@H]2CCOC2)cc1` gave a Ki at Protease of 1.53 nM. Also, the IC50 in assay [8] is over 381 nM.

In turn, `COc1ccc(S(=O)(=O)N(CC(C)C)C[C@@H](O)[C@H](Cc2cccc(-c3cc(OC)cc(OC)c3)c2)NC(=O)O[C@H]2CCOC2)cc1` showed an inhibition constant (Ki) on Protease of 0.58 nM. The IC50 in [8] was 180 nM.

`COc1ccc(S(=O)(=O)N(CC(C)C)C[C@@H](O)[C@H](Cc2cccc(-c3cc(C)cc(C)c3)c2)NC(=O)OC(C)(C)C)cc1`: on Protease, the affinity, expressed as Ki, was 48.8 nM. Moreover, the IC50 in [8] was over 1000 nM.

Regarding `COc1ccc(S(=O)(=O)N(CC(C)C)C[C@@H](O)[C@H](Cc2cccc(-c3cc(OC(F)(F)F)cc(OC(F)(F)F)c3)c2)NC(=O)OC(C)(C)C)cc1`, on Protease, the inhibition constant (Ki) stood at 92.8 nM. In addition, the IC50 in [8] is over 1000 nM.

As for `COc1ccc(S(=O)(=O)N(CC(C)C)C[C@@H](O)[C@H](Cc2cccc(-c3ccc4c(c3)OCO4)c2)NC(=O)OC(C)(C)C)cc1`, the Ki at Protease was 18 nM. In addition, the IC50 in [8] was over 1000 nM.

As for `COc1ccc(S(=O)(=O)N(CC(C)C)C[C@@H](O)[C@H](Cc2cccc(-c3cc(OC)cc(OC)c3)c2)NC(=O)OC(C)(C)C)cc1`, on Protease, the affinity, expressed as Ki, was 0.82 nM. Besides, the IC50 in assay [8] was over 1000 nM.

On to `COc1ccc(S(=O)(=O)N(CC(C)C)C[C@@H](O)[C@H](Cc2cccc(-c3ccccc3OC)c2)NC(=O)O[C@H]2CO[C@H]3OCC[C@H]32)cc1`, for which affinity at Protease was put at a Ki of 0.012 nM. The IC50 in assay [8] was 3 nM. Moreover, the EC50 was found to be 4.8 nM in assay [1], 36 nM in assay [2], 2.9 nM in [3] and 4.7 nM in assay [4]. The entries for the “fold change (FC)” value in assay [5], in assay [6] and in assay [7] were 8, 1 and 1, respectively.
